What was measured:
[1] = molecular target: P2Y purinoceptor 2 (Homo sapiens, UniProt P41231); experiment: Evaluated for agonist activity against phospholipase C coupled recombinant human P2Y purinoceptor 2 (P2Y2); format: functional
[2] = molecular target: T1, P2X purinoceptor 1 (Rattus norvegicus, UniProt P47824); experiment: The compound was evaluated for antagonist activity against P2X purinoceptor 1 (P2X1) like receptor from rat vas deferens; format: functional
T1 sequence (P47824 whole entry): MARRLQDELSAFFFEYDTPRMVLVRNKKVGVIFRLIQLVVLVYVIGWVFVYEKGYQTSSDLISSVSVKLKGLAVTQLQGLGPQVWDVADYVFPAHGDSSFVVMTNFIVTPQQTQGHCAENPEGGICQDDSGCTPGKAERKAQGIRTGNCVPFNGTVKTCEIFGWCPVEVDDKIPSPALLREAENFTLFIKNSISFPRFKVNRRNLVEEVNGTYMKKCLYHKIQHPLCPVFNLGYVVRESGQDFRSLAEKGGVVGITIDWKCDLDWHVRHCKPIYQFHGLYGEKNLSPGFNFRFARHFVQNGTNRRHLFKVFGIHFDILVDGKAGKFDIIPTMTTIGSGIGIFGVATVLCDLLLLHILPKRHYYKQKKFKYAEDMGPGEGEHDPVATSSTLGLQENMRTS

[3] = molecular target: P2Y purinoceptor 1 (Meleagris gallopavo, UniProt P49652); experiment: Evaluated for agonist activity against phospholipase C coupled P2Y purinoceptor 1 (P2Y1) of turkey erythrocytes; format: functional
Sequence of P2Y purinoceptor 1 (P49652 whole entry): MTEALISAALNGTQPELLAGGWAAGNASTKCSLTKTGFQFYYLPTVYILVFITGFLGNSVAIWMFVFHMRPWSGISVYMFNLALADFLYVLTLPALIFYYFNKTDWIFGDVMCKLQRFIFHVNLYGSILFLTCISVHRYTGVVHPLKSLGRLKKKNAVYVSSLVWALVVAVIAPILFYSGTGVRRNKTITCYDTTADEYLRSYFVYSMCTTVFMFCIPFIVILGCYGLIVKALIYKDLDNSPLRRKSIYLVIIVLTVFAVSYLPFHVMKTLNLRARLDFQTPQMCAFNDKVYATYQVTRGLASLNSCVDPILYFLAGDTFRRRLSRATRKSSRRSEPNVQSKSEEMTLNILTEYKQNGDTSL

[4] = molecular target: P2Y purinoceptor 12 (Rattus norvegicus, UniProt Q9EPX4); experiment: Antagonist activity against phospholipase C coupled rat P2Y purinoceptor 12 (P2Y12); format: functional
Sequence of P2Y purinoceptor 12 (Q9EPX4 whole entry): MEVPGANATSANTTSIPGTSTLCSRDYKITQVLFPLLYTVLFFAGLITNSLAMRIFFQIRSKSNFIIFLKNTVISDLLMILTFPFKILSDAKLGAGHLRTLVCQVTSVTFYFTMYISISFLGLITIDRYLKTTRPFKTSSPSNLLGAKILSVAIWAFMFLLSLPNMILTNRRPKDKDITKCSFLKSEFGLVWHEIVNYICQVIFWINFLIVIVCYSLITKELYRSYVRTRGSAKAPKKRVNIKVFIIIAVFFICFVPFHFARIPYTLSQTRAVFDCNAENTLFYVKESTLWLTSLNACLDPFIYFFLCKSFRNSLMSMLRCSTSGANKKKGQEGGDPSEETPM

[5] = molecular target: P2Y purinoceptor 6 (Homo sapiens, UniProt Q15077); experiment: The compound was evaluated for agonist activity against phospholipase C coupled recombinant human P2Y purinoceptor 6 (P2Y6); format: functional
Sequence of P2Y purinoceptor 6 (Q15077 whole entry): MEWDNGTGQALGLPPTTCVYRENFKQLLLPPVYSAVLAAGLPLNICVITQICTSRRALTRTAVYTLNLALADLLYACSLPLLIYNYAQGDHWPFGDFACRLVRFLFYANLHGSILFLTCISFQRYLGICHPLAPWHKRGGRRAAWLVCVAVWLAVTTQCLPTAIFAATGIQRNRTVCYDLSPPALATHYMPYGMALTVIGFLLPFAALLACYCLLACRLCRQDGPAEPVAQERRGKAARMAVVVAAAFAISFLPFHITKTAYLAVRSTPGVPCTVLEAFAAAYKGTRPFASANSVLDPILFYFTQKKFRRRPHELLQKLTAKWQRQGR

[6] = molecular target: T2, P2Y purinoceptor 11 (Homo sapiens, UniProt Q96G91); experiment: Agonist activity against phospholipase C coupled human P2Y purinoceptor 11 (P2Y11); format: functional
T2 sequence (Q96G91 whole entry): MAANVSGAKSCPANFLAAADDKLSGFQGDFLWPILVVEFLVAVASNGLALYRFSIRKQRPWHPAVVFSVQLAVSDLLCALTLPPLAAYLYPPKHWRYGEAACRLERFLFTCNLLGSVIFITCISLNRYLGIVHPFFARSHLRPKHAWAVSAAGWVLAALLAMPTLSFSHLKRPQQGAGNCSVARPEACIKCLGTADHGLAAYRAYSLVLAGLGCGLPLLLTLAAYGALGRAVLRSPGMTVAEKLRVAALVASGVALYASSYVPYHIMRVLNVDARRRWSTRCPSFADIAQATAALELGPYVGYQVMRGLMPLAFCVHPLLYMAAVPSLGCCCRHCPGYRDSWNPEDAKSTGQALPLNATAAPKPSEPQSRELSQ

[7] = molecular target: P2Y purinoceptor 4 (Homo sapiens, UniProt P51582); experiment: The compound was evaluated for antagonist activity against phospholipase C coupled recombinant human P2Y purinoceptor 4 (P2Y4); format: functional
Sequence of P2Y purinoceptor 4 (P51582 whole entry): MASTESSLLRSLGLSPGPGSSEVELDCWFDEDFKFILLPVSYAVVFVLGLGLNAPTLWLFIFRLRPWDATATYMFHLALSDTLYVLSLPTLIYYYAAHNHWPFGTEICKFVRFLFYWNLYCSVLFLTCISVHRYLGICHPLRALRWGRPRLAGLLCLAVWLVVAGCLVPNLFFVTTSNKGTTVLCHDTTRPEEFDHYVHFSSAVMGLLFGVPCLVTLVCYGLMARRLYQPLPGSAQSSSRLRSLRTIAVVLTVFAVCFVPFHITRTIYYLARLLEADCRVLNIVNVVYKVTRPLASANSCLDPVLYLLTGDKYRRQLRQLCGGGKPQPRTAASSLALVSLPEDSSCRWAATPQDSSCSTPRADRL

[8] = molecular target: T1, P2X purinoceptor 1; experiment: The compound was evaluated for antagonist activity against recombinant rat P2X purinoceptor 1 (P2X1); format: functional
[9] = molecular target: T3, P2X purinoceptor 1 (Homo sapiens, UniProt P51575); experiment: Antagonist activity against recombinant human P2X purinoceptor 1 (P2X1 ); format: functional
T3 sequence (P51575 whole entry): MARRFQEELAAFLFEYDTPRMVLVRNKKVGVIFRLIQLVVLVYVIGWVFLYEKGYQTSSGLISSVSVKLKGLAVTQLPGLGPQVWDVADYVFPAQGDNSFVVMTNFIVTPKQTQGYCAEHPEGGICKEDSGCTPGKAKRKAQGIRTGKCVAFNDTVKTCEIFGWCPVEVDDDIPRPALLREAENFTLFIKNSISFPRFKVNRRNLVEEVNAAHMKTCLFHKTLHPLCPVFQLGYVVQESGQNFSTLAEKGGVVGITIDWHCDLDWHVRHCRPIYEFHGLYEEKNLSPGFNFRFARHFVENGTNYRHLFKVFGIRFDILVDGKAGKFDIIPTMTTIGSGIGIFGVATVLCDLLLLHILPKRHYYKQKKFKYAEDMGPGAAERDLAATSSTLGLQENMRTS

[10] = molecular target: T1, P2X purinoceptor 1; experiment: The compound was evaluated for antagonist activity against recombinant rat P2X purinoceptor 1 (P2X1) at 1 uM, expressed in Xenopus oocytes; format: functional, cell-based, Oocyte
[11] = molecular target: T4, P2X purinoceptor 4 (Rattus norvegicus, UniProt P51577); experiment: Antagonist activity against recombinant rat P2X purinoceptor 4 (P2X4) at 3 uM, expressed in Xenopus oocytes; format: functional, cell-based, Oocyte
T4 sequence (P51577 whole entry): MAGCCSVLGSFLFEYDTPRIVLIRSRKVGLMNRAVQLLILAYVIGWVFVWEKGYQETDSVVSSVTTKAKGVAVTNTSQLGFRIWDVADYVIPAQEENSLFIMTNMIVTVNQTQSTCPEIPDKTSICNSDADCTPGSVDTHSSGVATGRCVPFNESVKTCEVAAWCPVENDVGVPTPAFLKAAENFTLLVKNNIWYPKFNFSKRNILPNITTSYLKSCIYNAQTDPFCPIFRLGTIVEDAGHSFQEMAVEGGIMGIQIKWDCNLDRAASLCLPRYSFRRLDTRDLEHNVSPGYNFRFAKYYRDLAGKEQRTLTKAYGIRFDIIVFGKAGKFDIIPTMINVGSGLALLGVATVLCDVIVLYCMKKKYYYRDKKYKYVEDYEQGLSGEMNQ

[12] = molecular target: T5, P2X purinoceptor 5 (Rattus norvegicus, UniProt P51578); experiment: Antagonist activity against recombinant rat P2X purinoceptor 5 (P2X5); format: functional
T5 sequence (P51578 whole entry): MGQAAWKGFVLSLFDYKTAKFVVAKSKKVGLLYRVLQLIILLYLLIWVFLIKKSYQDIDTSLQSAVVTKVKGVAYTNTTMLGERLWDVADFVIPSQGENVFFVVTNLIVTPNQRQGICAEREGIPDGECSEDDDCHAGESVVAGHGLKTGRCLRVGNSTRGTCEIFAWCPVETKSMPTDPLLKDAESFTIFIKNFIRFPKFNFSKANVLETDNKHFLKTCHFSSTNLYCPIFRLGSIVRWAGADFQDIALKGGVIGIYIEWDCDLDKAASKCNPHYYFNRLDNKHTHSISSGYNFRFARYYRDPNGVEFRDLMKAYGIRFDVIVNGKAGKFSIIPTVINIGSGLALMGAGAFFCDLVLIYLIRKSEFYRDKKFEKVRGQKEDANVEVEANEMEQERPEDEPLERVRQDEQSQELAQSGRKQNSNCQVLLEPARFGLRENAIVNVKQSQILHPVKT

[13] = molecular target: P2X purinoceptor 6 (Rattus norvegicus, UniProt P51579); experiment: Antagonist activity against recombinant rat P2X purinoceptor 6 (P2X6 ); format: functional
Sequence of P2X purinoceptor 6 (P51579 whole entry): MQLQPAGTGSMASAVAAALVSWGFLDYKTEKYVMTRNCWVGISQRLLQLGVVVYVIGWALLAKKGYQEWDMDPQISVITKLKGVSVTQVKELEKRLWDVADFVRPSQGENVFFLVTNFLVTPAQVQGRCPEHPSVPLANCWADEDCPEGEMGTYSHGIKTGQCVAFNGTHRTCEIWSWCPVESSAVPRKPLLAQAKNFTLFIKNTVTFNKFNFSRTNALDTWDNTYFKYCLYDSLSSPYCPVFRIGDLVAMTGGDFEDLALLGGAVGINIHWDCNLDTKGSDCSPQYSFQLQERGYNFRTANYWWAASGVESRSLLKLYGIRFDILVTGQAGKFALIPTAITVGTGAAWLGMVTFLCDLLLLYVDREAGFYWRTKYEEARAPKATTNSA

[14] = molecular target: T4, P2X purinoceptor 4; experiment: Antagonist activity against recombinant rat P2X purinoceptor 4 (P2X4) at 30 uM, expressed in Xenopus oocytes; format: functional, cell-based, Oocyte
[15] = molecular target: T6, P2X purinoceptor 3 (Homo sapiens, UniProt P56373); experiment: Antagonist activity against recombinant human P2X purinoceptor 3 (P2X3 ); format: functional
T6 sequence (P56373 whole entry): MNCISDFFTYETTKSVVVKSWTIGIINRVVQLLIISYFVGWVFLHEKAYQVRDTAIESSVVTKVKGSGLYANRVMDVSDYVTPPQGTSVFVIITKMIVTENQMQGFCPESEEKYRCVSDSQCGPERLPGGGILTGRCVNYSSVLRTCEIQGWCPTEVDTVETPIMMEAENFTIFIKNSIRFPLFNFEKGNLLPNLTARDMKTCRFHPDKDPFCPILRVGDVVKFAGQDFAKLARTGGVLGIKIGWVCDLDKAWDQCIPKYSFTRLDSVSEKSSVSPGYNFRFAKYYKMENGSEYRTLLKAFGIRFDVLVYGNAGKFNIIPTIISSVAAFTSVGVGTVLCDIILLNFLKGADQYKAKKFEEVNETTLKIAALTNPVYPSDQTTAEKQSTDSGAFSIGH

[16] = molecular target: T7, P2X purinoceptor 2 (Rattus norvegicus, UniProt P49653); experiment: Antagonist activity against recombinant rat receptor P2X purinoceptor 2 (P2X2) at 10 uM, expressed in Xenopus oocytes; format: functional, cell-based, Oocyte
T7 sequence (P49653 whole entry): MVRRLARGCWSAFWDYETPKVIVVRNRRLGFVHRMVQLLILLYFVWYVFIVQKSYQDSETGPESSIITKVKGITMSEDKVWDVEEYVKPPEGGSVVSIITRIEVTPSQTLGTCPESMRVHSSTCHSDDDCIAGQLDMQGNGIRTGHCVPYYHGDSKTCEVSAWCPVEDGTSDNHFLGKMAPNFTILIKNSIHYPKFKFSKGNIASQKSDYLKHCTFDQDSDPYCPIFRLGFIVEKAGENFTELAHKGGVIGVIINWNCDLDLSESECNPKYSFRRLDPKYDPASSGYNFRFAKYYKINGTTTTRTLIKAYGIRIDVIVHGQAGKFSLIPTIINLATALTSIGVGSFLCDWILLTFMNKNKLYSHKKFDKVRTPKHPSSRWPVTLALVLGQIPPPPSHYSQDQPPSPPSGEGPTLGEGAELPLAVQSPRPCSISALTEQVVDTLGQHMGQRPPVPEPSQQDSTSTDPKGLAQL

[17] = molecular target: T8, P2X purinoceptor 4 (Homo sapiens, UniProt Q99571); experiment: Antagonist activity against recombinant human P2X purinoceptor 4 (P2X4); format: functional
T8 sequence (Q99571 whole entry): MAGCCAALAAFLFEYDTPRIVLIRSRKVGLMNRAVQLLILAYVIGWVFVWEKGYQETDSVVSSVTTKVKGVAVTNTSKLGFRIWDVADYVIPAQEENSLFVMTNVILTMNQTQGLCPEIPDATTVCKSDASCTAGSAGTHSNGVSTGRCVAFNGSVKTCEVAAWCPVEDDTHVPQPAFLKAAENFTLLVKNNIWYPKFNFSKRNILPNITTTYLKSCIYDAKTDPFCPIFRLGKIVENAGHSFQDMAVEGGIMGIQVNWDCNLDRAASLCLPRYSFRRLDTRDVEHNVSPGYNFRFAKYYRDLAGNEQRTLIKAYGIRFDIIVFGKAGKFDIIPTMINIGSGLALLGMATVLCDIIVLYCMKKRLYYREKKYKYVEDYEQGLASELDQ

Sequence of P2Y purinoceptor 2 (P41231 whole entry): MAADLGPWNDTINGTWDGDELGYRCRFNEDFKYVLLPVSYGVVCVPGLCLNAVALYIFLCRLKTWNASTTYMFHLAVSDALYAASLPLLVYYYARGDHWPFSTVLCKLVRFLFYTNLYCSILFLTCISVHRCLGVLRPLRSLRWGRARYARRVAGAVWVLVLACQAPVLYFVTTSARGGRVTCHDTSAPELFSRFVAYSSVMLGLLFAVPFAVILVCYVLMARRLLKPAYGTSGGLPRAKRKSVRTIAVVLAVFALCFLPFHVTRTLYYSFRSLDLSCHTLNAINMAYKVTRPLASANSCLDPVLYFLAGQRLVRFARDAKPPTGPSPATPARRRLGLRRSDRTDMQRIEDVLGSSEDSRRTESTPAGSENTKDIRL

## CSc1nc(N)c2ncn([C@@H]3O[C@H](COP(=O)(O)OP(=O)(O)O)[C@@H](O)[C@H]3O)c2n1
[1]
  EC50: > 100000 nM

## Nc1c(S(=O)(=O)O)cc(Nc2ccc(Nc3nc(Cl)nc(Cl)n3)c(S(=O)(=O)O)c2)c2c1C(=O)c1ccccc1C2=O
[2]
  IC50: 8800 nM

## CNc1nc(Cl)nc2c1ncn2[C@H]1C[C@@H](OP(=O)(O)O)[C@]2(COP(=O)(O)O)C[C@H]12
[3]
  EC50: 52 nM
[4]
  EC50: > 100000 nM
[5]
  EC50: > 100000 nM
[1]
  EC50: > 100000 nM
[6]
  EC50: > 100000 nM
[7]
  EC50: > 100000 nM

## Cc1cc(C)c(Nc2cc(S(=O)(=O)O)c(N)c3c2C(=O)c2ccccc2C3=O)c(C)c1 [ACID BLUE 129]
[2]
  Kd: > 100000 nM

## Cc1nc(/N=N/c2cc(S(=O)(=O)O)c3cc([N+](=O)[O-])cc(S(=O)(=O)O)c3c2)c(COP(=O)(O)O)c(C=O)c1O
[8]
  EC50: 14 nM

## Nc1ncnc2c1ncn2[C@@H]1O[C@H](COP(=O)(O)OP(=O)(O)CP(=O)(O)O)[C@@H](O)[C@H]1O [PHOSPHOMETHYLPHOSPHONIC ACID ADENYLATE ESTER]
[3]
  EC50: > 100000 nM
[4]
  EC50: > 100000 nM
[9]
  EC50: 2000 nM

## Nc1ncnc2c1ncn2[C@@H]1CO[C@H](COP(=O)(O)O)[C@@H](OP(=O)(O)O)C1
[3]
  EC50: 3 nM

## CCCCCCSc1nc(N)c2ncn([C@@H]3O[C@H](COP(=O)(O)O)[C@@H](O)[C@H]3O)c2n1
[3]
  EC50: 4.8 nM
[10]
  EC50: 840 nM
[11]
  EC50: 20000 nM

## Nc1ncnc2c1ncn2[C@@H]1O[C@H](CO[P@](=O)(O)O[P@](=O)(O)O[P@@](=O)(O)S)[C@@H](O)[C@H]1O
[3]
  EC50: 1300 nM
[12]
  EC50: 600 nM
[13]
  EC50: 1300 nM
[4]
  EC50: 1300 nM
[9]
  EC50: 2300 nM
[14]
  EC50: 2300 nM
[1]
  EC50: 1720 nM
[15]
  EC50: 690 nM
[16]
  EC50: 1500 nM
[6]
  EC50: 3000 nM

## CSc1nc(N)c2ncn([C@@H]3O[C@H](COP(=O)(O)OP(=O)(O)OP(=O)(O)O)[C@@H](O)[C@H]3O)c2n1
[12]
  EC50: 1000 nM
[13]
  EC50: 600 nM
[4]
  EC50: 1.1 nM
[9]
  EC50: 54 nM
[5]
  EC50: 100000 nM
[17]
  EC50: 1000 nM
[14]
  EC50: 7400 nM
[15]
  EC50: 350 nM
[16]
  EC50: 1500 nM
[6]
  EC50: 50000 nM

## Nc1ncnc2c1ncn2[C@@H]1O[C@H](COP(=O)(O)OP(=O)(O)S)[C@@H](O)[C@H]1O (some centres undefined)
[4]
  EC50: 82 nM
[9]
  EC50: 2500 nM
[17]
  EC50: 25000 nM
[15]
  EC50: 8800 nM
[16]
  EC50: 100000 nM
[6]
  EC50: 30000 nM

## Nc1ncnc2c1ncn2[C@H]1CC(OP(=O)(O)O)C2(COP(=O)(O)O)CC12 (some centres undefined)
[3]
  EC50: 155 nM

## O=c1[nH]cnc2c1ncn2[C@@H]1O[C@H](COP(=O)(O)OP(=O)(O)OP(=O)(O)OP(=O)(O)OP(=O)(O)OC[C@H]2O[C@@H](n3cnc4c(=O)[nH]cnc43)[C@H](O)[C@@H]2O)[C@@H](O)[C@H]1O
[8]
  EC50: 1.5 nM

## Nc1ncnc2c1ncn2[C@H]1C[C@H](O)[C@@H](COP(=O)(O)OP(=O)(O)OP(=O)(O)O)O1
[6]
  EC50: 9000 nM

## Nc1ccc(CCSc2nc(N)c3ncn([C@@H]4O[C@H](COP(=O)(O)OP(=O)(O)OP(=O)(O)O)[C@@H](O)[C@H]4O)c3n2)cc1
[3]
  EC50: 1.5 nM
[10]
  EC50: 98 nM
[11]
  EC50: 15000 nM

Source: ChEMBL document CHEMBL1135773, “Purine and pyrimidine (P2) receptors as drug targets” (J Med Chem, 2002)
